Laboratory results reported in patent US5389639A, “Amino alkanoic esters of rapamycin” (American Home Products Company, priority 1993, dated 1995).
Read-outs that look alike come from different tables or passages of the source.

Legend:
[1] = Relative oral potency: oral and i.p. ED50s in the skin graft test procedure; type: in vivo; conditions: mouse, ratio of oral and i.p. ED50s, p.o. 40, 10, 2.5 mg/kg, i.p. 4, 1, 0.25 mg/kg, 6 consecutive days, data obtained in cremophor, lower ratio = greater oral bioavailability
Description: The relative oral potency is determined by comparing the oral and i.p. ED50s obtained in the skin graft standard pharmacological test procedure. Briefly, the compound to be tested is evaluated at the doses of 40, 10, and 2.5 mg/kg for p.o. administration and 4, 1, and 0.25 mg/kg for i.p. administration, both administered for 6 consecutive days in the skin graft test procedure so that a dose response curve can be generated for both oral and i.p. administration. The data are subjected to a parallel line analysis and an oral and i.p. ED50 is calculated for the compound tested, and the ED50s are expressed as a ratio according to the following formula: [formula]
When comparing oral potency for different compounds that have been evaluated, the lower the ratio, the greater the oral bioavailability. The oral bioavailability serves as a measure of oral potency.

[2] = system: cells from the thymus of normal BALB/c mice (lymphocyte proliferation); test: Comitogen-induced thymocyte proliferation procedure (LAF); type: cell-based; conditions: Mus musculus
Description: (§1) Immunosuppressive activity for representative compounds of this invention was evaluated in an in vitro standard pharmacological test procedure to measure lymphocyte proliferation (LAF) and in an in vivo standard pharmacological test procedure which evaluated the survival time of a pinch skin graft.
The comitogen-induced thymocyte proliferation procedure (LAF) was used as an in vitro measure of the immunosuppressive effects of representative compounds. Briefly, cells from the thymus of normal BALB/c mice are cultured for 72 hours with PHA and IL-1 and pulsed with tritiated thymidine during the last six hours. Cells are cultured with and without various concentrations of rapamycin, cyclosporin A, or test compound. Cells are harvested and incorporated radioactivity is determined. Inhibition of lymphoproliferation is assessed as percent change in counts per minute from non-drug treated controls. For each compound evaluated, rapamycin was also evaluated for the purpose of comparison. An IC50 was obtained for each test compound as well as for rapamycin. […] The results obtained for the representative compounds of this invention are presented as IC50s.

[3] = system: pinch skin graft from male BALB/c donors transplanted to male C3H(H-2K) recipients; test: Survival time of pinch skin graft; type: in vivo, mouse; conditions: 4 mg/kg; intraperitoneally or orally; untreated usually rejected within 6-7 days
Description: as §1
Representative compounds of this invention were also evaluated in an in vivo test procedure designed to determine the survival time of pinch skin graft from male BALB/c donors transplanted to male C3 H(H-2K) recipients. The method is adapted from Billingham R. E. and Medawar P. B., J. Exp. Biol. 28:385-402, (1951). Briefly, a pinch skin graft from the donor was grafted on the dorsum of the recipient as a allograft, and an isograft was used as control in the same region. The recipients were treated with either varying concentrations of test compounds intraperitoneally or orally. Rapamycin was used as a test control. Untreated recipients serve as rejection control. The graft was monitored daily and observations were recorded until the graft became dry and formed a blackened scab. This was considered as the rejection day. The mean graft survival time (number of days ±S.D.) of the drug treatment group was compared with the control group. […] Results are expressed as the mean survival time in days. Untreated (control) pinch skin grafts are usually rejected within 6-7 days. The results shown in Table 1 are based on a dose of 4 mg/kg of test compound. A survival time of 11.67±0.63 days was obtained for rapamycin at 4 mg/kg.

adjuvant arthritis = conditions: model for rheumatoid arthritis; cited from earlier work
Candida albicans = conditions: particularly against Candida albicans, both in vitro and in vivo; cited from earlier work
[4] = system: experimental allergic encephalomyelitis; conditions: model for multiple sclerosis; cited from earlier work
[5] = 72 hours with PHA and IL-1, tritiated thymidine during last six hours, read-out: LAF IC50

SMILES | IC50 [2, 5] [nM] | Skin Graft mean survival time (days ± SD) [3] [days] | also measured
CO[C@H]1C[C@@H]2CC[C@@H](C)[C@@](O)(O2)C(=O)C(=O)N2CCCC[C@H]2C(=O)O[C@H]([C@H](C)C[C@@H]2CC[C@@H](OC(=O)CC[C@H](NC(=O)OC(C)(C)C)C(=O)OC(C)(C)C)[C@H](OC)C2)CC(=O)[C@H](C)/C=C(\C)[C@@H](O)[C@@H](OC)C(=O)[C@H](C)C[C@H](C)/C=C/C=C/C=C/1C [Rapamycin 42-ester with (S)-5-tert-butoxy-4-tert-butoxycarbonylamino-5-oxo-pentanoic acid, reference compound] | – | – | selectivity ratio [1]: 188
CO[C@H]1C[C@@H]2CC[C@@H](C)[C@@](O)(O2)C(=O)C(=O)N2CCCC[C@H]2C(=O)O[C@H]([C@H](C)C[C@@H]2CC[C@@H](OC(=O)C[C@H](N)C(=O)O)[C@H](OC)C2)CC(=O)[C@H](C)/C=C(\C)[C@@H](O)[C@@H](OC)C(=O)[C@H](C)C[C@H](C)/C=C/C=C/C=C/1C [Example 3, Rapamycin 42-ester with (S)-3-amino-3-carboxypropanoic acid] | 2.5 | 10.17 ± 0.75 | –
CO[C@H]1C[C@@H]2CC[C@@H](C)[C@@](O)(O2)C(=O)C(=O)N2CCCC[C@H]2C(=O)O[C@H]([C@H](C)C[C@@H]2CC[C@@H](OC(=O)CC[C@@H](N)C(=O)O)[C@H](OC)C2)CC(=O)[C@H](C)/C=C(\C)[C@@H](O)[C@@H](OC)C(=O)[C@H](C)C[C@H](C)/C=C/C=C/C=C/1C [Example 9, Rapamycin 42-ester with (R)-4-amino-4-carboxybutanoic acid] | 7.8 | 11.20 ± 1.00 | –
CCCOC(=O)N[C@H](CCC(=O)O[C@@H]1CC[C@@H](C[C@@H](C)[C@@H]2CC(=O)[C@H](C)/C=C(\C)[C@@H](O)[C@@H](OC)C(=O)[C@H](C)C[C@H](C)/C=C/C=C/C=C(\C)[C@@H](OC)C[C@@H]3CC[C@@H](C)[C@@](O)(O3)C(=O)C(=O)N3CCCC[C@H]3C(=O)O2)C[C@H]1OC)C(=O)O [Example 5, Rapamycin 42-ester with (R)-4-carboxy-4[[[propyloxy]carbonyl]amino]-butanoic acid] | 3.9 | 10.83 ± 0.75 | –
CO[C@H]1C[C@@H]2CC[C@@H](C)[C@@](O)(O2)C(=O)C(=O)N2CCCC[C@H]2C(=O)O[C@H]([C@H](C)C[C@@H]2CC[C@@H](OC(=O)CC[C@H](N)C(=O)O)[C@H](OC)C2)CC(=O)[C@H](C)/C=C(\C)[C@@H](O)[C@@H](OC)C(=O)[C@H](C)C[C@H](C)/C=C/C=C/C=C/1C [Example 7, Rapamycin 42-ester with (S)-4-amino-4-carboxy-butanoic acid] | 14 | 10.80 ± 0.40 | –
CO[C@H]1C[C@@H]2CC[C@@H](C)[C@@](O)(O2)C(=O)C(=O)N2CCCC[C@H]2C(=O)O[C@H]([C@H](C)C[C@@H]2CC[C@@H](OC(=O)CC[C@H](N)C(=O)OC(C)(C)C)[C@H](OC)C2)CC(=O)[C@H](C)/C=C(\C)[C@@H](O)[C@@H](OC)C(=O)[C@H](C)C[C@H](C)/C=C/C=C/C=C/1C [Example 11, Rapamycin 42-ester with-(S)-4-amino-5-(1,1-dimethylethoxy)-5-oxo-pentanoic acid] | 1.1 | 11.50 ± 1.05 | selectivity ratio [1]: 5.6
CO[C@H]1C[C@@H]2CC[C@@H](C)[C@@](O)(O2)C(=O)C(=O)N2CCCC[C@H]2C(=O)O[C@H]([C@H](C)C[C@@H]2CC[C@@H](OC(=O)C[C@H](NC(=O)OCc3ccccc3)C(=O)O)[C@H](OC)C2)CC(=O)[C@H](C)/C=C(\C)[C@@H](O)[C@@H](OC)C(=O)[C@H](C)C[C@H](C)/C=C/C=C/C=C/1C [Example 1, Rapamycin 42-ester with (S)-3-carboxy-3-[[[phenylmethoxy]carbonyl]amino]-propanoic acid] | 10.7 | 10.00 ± 0.00 | –
CO[C@H]1C[C@@H]2CC[C@@H](C)[C@@](O)(O2)C(=O)C(=O)N2CCCC[C@H]2C(=O)O[C@H]([C@H](C)C[C@@H]2CC[C@@H](OC(=O)CC[C@H](NC(=O)OCc3ccccc3)C(=O)O)[C@H](OC)C2)CC(=O)[C@H](C)/C=C(\C)[C@@H](O)[C@@H](OC)C(=O)[C@H](C)C[C@H](C)/C=C/C=C/C=C/1C [Example 10] | 27.1 | 10.17 ± 0.41 | –
CO[C@H]1C[C@@H]2CC[C@@H](C)[C@@](O)(O2)C(=O)C(=O)N2CCCC[C@H]2C(=O)O[C@H]([C@H](C)C[C@@H]2CC[C@@H](O)[C@H](OC)C2)CC(=O)[C@H](C)/C=C(\C)[C@@H](O)[C@@H](OC)C(=O)[C@H](C)C[C@H](C)/C=C/C=C/C=C/1C [rapamycin] | – | 11.67 ± 0.63 | effect in the adjuvant arthritis model (adjuvant arthritis): effective; antifungal activity (Candida albicans): antifungal activity; effect in the experimental allergic encephalomyelitis model [4]: effective; IC50 ([2]; read-out: IC50 of rapamycin as comparator (LAF)): 2.8 to 11.6 nM
CCCOC(=O)N[C@@H](CCC(=O)O[C@@H]1CC[C@@H](C[C@@H](C)[C@@H]2CC(=O)[C@H](C)/C=C(\C)[C@@H](O)[C@@H](OC)C(=O)[C@H](C)C[C@H](C)/C=C/C=C/C=C(\C)[C@@H](OC)C[C@@H]3CC[C@@H](C)[C@@](O)(O3)C(=O)C(=O)N3CCCC[C@H]3C(=O)O2)C[C@H]1OC)C(=O)O [Example 4, Rapamycin 42-ester with (S)-4-carboxy-4-[[[propyloxy]carbonyl]amino]butanoic acid] | 3.2 | 11.00 ± 1.00 | –
